# Legend:
# [1] = parameters: key to Phase preferences, Physiological conditions: L, Lamellar; HII, hexagonal; M, micellar; settings: liquid crystalline unsaturated lipids, cited from earlier work; for Phase preferences, Other conditions: conditions given in the cell
# [2] = THC degradation on heating of cannabis oil films (gas-liquid chromatography); settings: dry films with 14 mg cannabis oil, 1.5 hours at 100° C.
# Description: Five 1 ml chromatography glass vials were used for this purpose. […] Stock solutions of 0.5% sunflower lecithin (Sunlec25), 0.01% TBHQ and 0.5% lecithin+0.01% TBHQ were prepared.
# The chloroform was evaporated under a stream of air until completely dry. […] After the heating period, samples were removed from the oven, allowed to cool to room temperature and then 1 ml of fresh chloroform was added to each vial and capped. Samples were then analyzed by gas-liquid chromatography as described previously. […] A 15 m×0.25 mm internal diameter fused silica column with a 0.20 μm DB5 film thickness was used (Agilent Inc., USA). The oven temperature was maintained at 80° C. for 5 minutes and then programmed to increase from 80 to 300° C. at 12° C./min. […] Split ratio was set at 10:1. Helium, the earlier gas, flowed at an average velocity of 25 cm/s. A flame ionization detector was set at 350° C. with 450 mL/min air and 50 mL/min helium flowing. The separated peaks were analyzed using Open LAB software (Agilent Technologies). The amount of cannabinoid was determined by comparing retention times of the peaks to an internal standard. Tor this analysis, the main THC peak was analyzed.
# [3] = Rancimat accelerated oxidation test; assay type: physicochemical
# Description: To investigate this, accelerated oxidation tests of cannabis oil in the labile soybean oil with and without additional antioxidants were conducted. The Rancimat (Metrohm MG, Herisau, Switzerland) test was used for this purpose as follows. 2 g of oil were placed in a narrow glass flask, heated to 110° C. and air was bubbled through the oil at 20 ml/min. This caused accelerated oxidation. As the liquid oxidized, volatile secondary oxidation products were volatilized and bubbled into room temperature water. This caused them to dissolve in the water, which results in an increase in its electrical conductivity. The conductivity is measured continuously using a standard electrode.
Compound,"Phase preferences, Other conditions [1]","Phase preferences, Physiological conditions [1]",further results
"CC(C)CCC[C@@H](C)[C@H]1CC[C@H]2[C@@H]3CC=C4C[C@@H](O)CC[C@]4(C)[C@H]3CC[C@]12C [Cholesterol, cholesterol, reference compound]",Induces HII phase in mixed,–,–
Monoglucosyldiglyceride,–,HII,–
Phosphatidylcholine,HII low hydration and high,L,–
Phosphatidylinositol,–,L,–
"CCCCCc1cc(O)c2c(c1)OC(C)(C)[C@@H]1CCC(C)=C[C@@H]21 [THC, tetrahydrocannabinol]",–,–,degradation of THC on heating [2]: significant degradation
Cardiolipin,"HII, divalent cations,",L,–
Cerebroside,–,L,–
Monogalactosyldiglyceride,–,HII,–
Phosphatidic acid,"HII, divalent cations,",L,–
Sphingomyelin,–,L,–
"CC(C)(C)c1cc(O)ccc1O [TBHQ, tert-butylhydroquinone]",–,–,"increase of induction time ([3]; 0.01% TBHQ added to soybean oil alone): 7.1 h; induction time of oxidation ([3]; 0.01% TBHQ added to soybean oil containing 4.8 mg/g cannabis oil): 15.7 h; induction time of oxidation ([3]; 0.01% TBHQ added to soybean oil containing 0.5% sunflower lecithin and 4.8 mg/g cannabis oil): 28.8 h; increase of induction time of oxidation for every 100 ppm TBHQ added ([3]; soybean oil, 110° C.): 7.1 to 7.2 h"
Lysophosphatidylcholine,–,M,–
Cerebroside sulfate,–,L,–
Phosphatidylglycerol,"HII, high temp, high salt conc.",L,–
Phosphatidylethanolamine,"L, pH ≥ 8.5 low temp",HII,–
Digalactosyldiglyceride,–,L,–
Diglucosyldiglyceride,–,L,–
Ganglioside,–,M,–
Phosphatidylserine,"HII, pH ≤ 3.5",L,–

# From patent publication US12324800B2 (priority 2019, dated 2025)
